Source: US4258058A, “Phenoxyalkylcarboxylic acid compounds and thrombocyte-aggregation inhibition” (Boehringer Mannheim GmbH, priority 1978, dated 1981)

test system: thrombocyte aggregation; assay: Born test: inhibition of the second phase of adrenalin induced thrombocyte aggregation in platelet-rich plasma (PRP); format: cell-based, human; conditions: Homo sapiens, at 5 × 10^-5 m, induced by 5×10^-6 m adrenalin, read-out: Percent Inhibition Of Thrombocyte Aggregation
Description: In a series of determinations utilizing the Born test, venous blood from metabolically healthy persons was mixed with sodium citrate in a ratio of 9:1 and the erythrocytes precipitated by centrifuging at 150 g. The filtrate is enriched in thrombocytes and this filtrate is designated as platelet-rich plasma (PRP). One aliquot of the PRP is placed in the cuvette of an aggregometer (Universal Aggregometer, manufactured by Braun Melsungen, West Germany) and stirred with a magnetic stirrer. The substance to be tested is added in the form of an aqueous solution at a pH of about 7. Changes in the light transmission of the suspension are continuously recorded. After spontaneous aggregation ceases, further aggregation is induced by the addition of 5×10^-6 m adrenalin, forming larger thrombocyte aggregates and increasing the light transmission through the suspension.
The adrenalin induced aggregation takes place in two phases, i.e., the light transmission initially increases, then stagnates temporarily, and then increases again. Only the second phase of the aggregation can be influenced by aggregation inhibitors. For an evaluation of the results there is first established, in a control experiment using no test compound, the angle of the second aggregation phase against the horizontal for adrenalin induced aggregation and this is designated as 0% inhibition. Utilizing the same PRP, the test compound is added and aggregation is induced with adrenalin, and the course of aggregation continuously recorded. The angle of the second aggregation phase against the horizontal is again determined and the relationship of this angle against the angle determined in the control experiment yields the percent inhibition of the second phase of the thrombocyte aggregation.
The standard material "Colfarit" (acetylsalicylic acid) yields 100% inhibition at a concentration of 10^-4 m and 0% inhibition at a concentration of 5×10^-5 m. At the latter concentration the inventive compounds yielded the following results: […]

| SMILES | inhibition at 50 µM [%] |
| --- | --- |
| CC(C)(Oc1ccc(CCNS(=O)(=O)c2ccc(Cl)cc2)cc1)C(=O)O [2-{4-[2-(4-Chlorobenzenesulphonylamino)-ethyl]-phenoxy}-2-methylpropionic acid] | 100 |
| CC(C)(Oc1ccc(CCNS(=O)(=O)c2ccccc2)cc1)C(=O)O [2-{4-[2-(Benzenesulphonylamino)-ethyl]-phenoxy}-2-methylpropionic acid] | 20 |
| O=C(O)COc1ccc(CNS(=O)(=O)c2ccccc2)cc1 [4-(Benzenesulphonylaminomethyl)-phenoxyacetic acid] | 20 |
| O=C(O)COc1ccc(CCNS(=O)(=O)c2cccc3ccccc23)cc1 [4-[2-(1-naphthalenesulphonylamino)-ethyl]-phenoxyacetic acid] | 100 |
| O=C(O)COc1ccc(CCNS(=O)(=O)c2ccc(F)cc2)cc1 [4-[2-(4-Fluorobenzenesulphonylamino)-ethyl]-phenoxyacetic acid] | 100 |
| CC(=O)c1ccc(S(=O)(=O)NCCc2ccc(OCC(=O)O)cc2)cc1 [4-[2-(4-acetylbenzenesulphonylamino)-ethyl]-phenoxyacetic acid] | 100 |
| O=C(O)COc1ccc(CCNS(=O)(=O)c2ccc(Cl)cc2)cc1 [4-[2-(4-chlorobenzenesulphonylamino)-ethyl]-phenoxyacetic acid] | 100 |
| CC(CO)NC(=O)COc1ccc(CCNS(=O)(=O)c2ccccc2)cc1 (stereo not drawn) [4-[2-(Benzenesulphonylamino)-ethyl]-phenoxyacetic acid 1-hydroxy-2-propylamide] | 10 |
| CCOC(=O)CCNC(=O)COc1ccc(CCNS(=O)(=O)c2ccccc2)cc1 [4-[2-(Benzenesulphonylamino)-ethyl]-phenoxyacetic acid 2-ethoxycarbonylethylamide] | 100 |
| O=C(O)COc1ccc(CCNS(=O)(=O)c2ccccc2)cc1 [4-[2-(Benzenesulphonylamino)-ethyl]-phenoxyacetic acid] | 100 |
| Cc1ccc(S(=O)(=O)NCCc2ccc(OCC(=O)O)cc2)cc1 [4-[2-(p-toluenesulphonylamino)-ethyl]-phenoxyacetic acid] | 100 |
| O=C(O)COc1ccc(CCCNS(=O)(=O)c2ccccc2)cc1 [4-[3-(Benzenesulphonylamino)-propyl]-phenoxyacetic acid] | 100 |
| CC(=O)Oc1ccccc1C(=O)O [Colfarit, acetylsalicylic acid, reference compound] | 0 |
| CC(C)OC(=O)COc1ccc(CCNS(=O)(=O)c2ccccc2)cc1 [Isopropyl 4-[2-(benzenesulphonylamino)-ethyl]-phenoxyacetate] | 100 |

same assay, conditions: at 10^-4 m, induced by adrenalin

| SMILES | inhibition of thrombocyte aggregation [%] |
| --- | --- |
| CC(=O)Oc1ccccc1C(=O)O [Colfarit, acetylsalicylic acid, reference compound] | 100 |
